Data set [1] concerns human A2780 ovarian carcinoma cells. Kind of data set: Antiproliferative activity on A2780 cells (MTT-based assay). Type of data set: cell-based. The following applies: four days of incubation; for IC50: Homo sapiens, A2780, 96 h, read-out: Cellular activity pIC50 (converted). The method, then:
Cellular activity of the compounds of formula (I) was determined on A2780 tumour cells using a […] assay for cell toxicity or survival (Mosmann Tim, Journal of Immunological Methods 65: 55-63, 1983)(see example C.2).
All compounds tested were dissolved in DMSO and further dilutions were made in culture medium. Final DMSO concentrations never exceeded 0.1% (v/v) in cell proliferation assays, Controls contained A2780 cells and DMSO without compound and blanks contained DMSO but no cells. MTT was dissolved at 5 mg/ml in PBS. A glycine buffer comprised of 0.1 M glycine and 0.1 M NaCl buffered to pH 10.5 with NaOH (1 N) was prepared (all reagents were from Merck).
The human A2780 ovarian carcinoma cells (a kind gift from Dr. T. C. Hamilton [Fox Chase Cancer Centre, Pennsylvania, USA]) were cultured in RPMI 1640 medium supplemented with 2 mM L-glutamine, 50 μg/ml gentamicin and 10% fetal calf serum. Cells were routinely kept as monolayer cultures at 37° C. in a humidified 5% CO2 atmosphere. Cells were passaged once a week using a trypsin/EDTA solution at a split ratio of 1:40. All media and supplements were obtained from Life Technologies. Cells were free of mycoplasma contamination as determined using the Gen-Probe Mycoplasma Tissue Culture kit (supplier: BioMérieux).
Cells were seeded in NUNC™ 96-well culture plates (Supplier: Life Technologies) and allowed to adhere to the plastic overnight. Densities used for plating were 1500 cells per well in a total volume of 200 μl medium. After cell adhesion to the plates, medium was changed and drugs and/or solvents were added to a final volume of 200 μl. Following four days of incubation, medium was replaced by 200 μl fresh medium and cell density and viability was assessed using an MTT-based assay. To each well, 25 μl MTT solution was added and the cells were further incubated for 2 hours at 37° C. The medium was then carefully aspirated and the blue MTT-formazan product was solubilized by addition of 25 μl glycine buffer followed by 100 μl of DMSO. […] Within an experiment, the results for each experimental condition are the mean of 3 replicate wells. For initial screening purposes, compounds were tested at a single fixed concentration of 10^−6 M. For active compounds, the experiments were repeated to establish full concentration-response curves. For each experiment, controls (containing no drug) and a blank incubation (containing no cells or drugs) were run in parallel. The blank value was subtracted from all control and sample values. For each sample, the mean value for cell growth (in absorbance units) was expressed as a percentage of the mean value for cell growth of the control. […] Herein the effects of test compounds are expressed as pIC50 (the negative log value of the IC50-value).
A general note: Tetrazolium dyes change colour on reduction, which living cells bring about.

Data set [2] in a line: Kinetic solubility in aqueous media (nephelometer turbidity). The following applies: aqueous buffer, kinetic from dmso stock; phosphate citrate buffer pH 7.4, dilution from 5 mM DMSO stock; read-out: Solubility Score. Type of data set: physicochemical. The method, then: Kinetic solubility in aqueous media measures the ability of a compound to stay in aqueous solution upon dilution (see example C.3).
DMSO-stock solutions are diluted with a single aqueous buffer solvent in 3 consecutive steps. For every dilution turbidity is measured with a nephelometer.
In the first dilution step, 10 μl of a concentrated stock-solution of the active compound, solubilized in DMSO (5 mM), was added to 100 μl phosphate citrate buffer pH 7.4 and mixed. In the second dilution step, an aliquot (20 μl) of the first dilution step was further dispensed in 100 μl phosphate citrate buffer pH 7.4 and mixed. Finally, in the third dilution step, a sample (20 μl) of the second dilution step was further diluted in 100 μl phosphate citrate buffer pH 7.4 and mixed. All dilutions were performed in 96-well plates. Immediately after the last dilution step the turbidity of the three consecutive dilution steps were measured with a nephelometer. Dilution was done in triplicate for each compound to exclude occasional errors. Based on the turbidity measurements a ranking is performed into 3 classes. Compounds with high solubility obtained a score of 3 and for this compounds the first dilution is clear. Compounds with medium solubility obtained a score of 2. For these compounds the first dilution is unclear and the second dilution is clear. […] The solubility of 11 compounds was measured.

Data set [3] has as its target histone deacetylase (HeLa nuclear extracts). Kind of data set: In vitro assay for inhibition of histone deacetylase (HeLa nuclear extracts, radiolabeled histone H4 peptide substrate). The following applies: HeLa nuclear extracts 60 μg/ml, 30 min, pH 7.4. Format: biochemical. The method, then:
The in vitro assay for inhibition of histone deacetylase (see example C.1) measures the inhibition of HDAC enzymatic activity obtained with the compounds of formula (I).
HeLa nuclear extracts (supplier: Biomol) were incubated at 60 μg/ml with 2×10^−8 M of radiolabeled peptide substrate. As a substrate for measuring HDAC activity a synthetic peptide, i.e. the amino acids 14-21 of histone H4, was used. The substrate is biotinylated at the NH2-terminal part with a 6-aminohexanoic acid spacer, and is protected at the COOH-terminal part by an amide group and specifically [^3H]-acetylated at lysine 16. The substrate, biotin-(6-aminohexanoic)Gly-Ala-([^3H]-acetyl-Lys-Arg-His-Arg-Lys-Val-NH2), was added in a buffer containing 25 mM Hepes, 1 M sucrose, 0.11 mg/ml BSA and 0.01% Triton X-100 at pH 7.4. After 30 min the deacetylation reaction was terminated by the addition of HCl and acetic acid. (final concentration 0.035 mM and 3.8 mM respectively). After stopping the reaction, the free ^3H-acetate was extracted with ethylacetate. After mixing and centrifugation, the radioactivity in an aliquot of the upper (organic) phase was counted in a β-counter.
For each experiment, controls (containing HeLa nuclear extract and DMSO without compound), a blank incubation (containing DMSO but no HeLa nuclear extract or compound) and samples (containing compound dissolved in DMSO and HeLa nuclear extract) were run in parallel. In first instance, compounds were tested at a concentration of 10^−5M. […] In each test the blank value was subtracted from both the control and the sample values. The control sample represented 100% of substrate deactylation. For each sample the radioactivity was expressed as a percentage of the mean value of the controls. […] Herein the effects of test compounds are expressed as pIC50 (the negative log value of the IC50-value).

Assay in data set [4]: not given
This is another data set of the same source.

The text below walks through data of patent publication US8501737B2, “Piperazinyl-, piperidinyl- and morpholinyl-derivatives as novel inhibitors of histone deacetylase” (Janssen Pharmaceutica N.V., priority 2002, dated 2013).

Broadly, the solubility is how much of the substance goes into solution per volume. For orientation: melting point means the temperature, or range, at which the solid turns liquid.

≈ marks a conversion by molar mass, not a printed value. Like-named read-outs stand apart in the source and are kept apart here.

With `O=C(NO)c1cnc(N2CCOC(CNC(=O)c3ccc4ccccc4c3)C2)nc1` (centres unmarked) [Compound 9], the melting point was found to be 246 °C. Moreover, the IC50 in data set [1] was more than 10000 nM. Also, the solubility in data set [2] was more than 454 µM. Also, the “Enzyme activity pIC50” value in data set [3] was 7.609.
In the same order, the values of `O=C(NO)c1ccc(N2CCOC(CNS(=O)(=O)c3ccc4ccccc4c3)C2)nc1` (centres unmarked) [Compound 7] are 157 °C, 2040 nM, more than 454 µM and 7.323.
Regarding `O=C(NO)c1cnc(N2CCO[C@H](CNS(=O)(=O)c3ccc(-c4ccccc4)cc3)C2)nc1` [Compound 1], the melting point turned out to be 164 °C. Further, the “Cellular activity pIC50” value in data set [1] amounted to 6.232. In data set [3], the “Enzyme activity pIC50” value is reported as 7.723.
As to `O=C(NO)c1cnc(N2CCCC(CNS(=O)(=O)c3ccc4ccccc4c3)C2)nc1` (centres unmarked) [Compound 10], the melting point was 210 °C. Besides, in data set [1], the IC50 is 1080 nM. In addition, in data set [2], the solubility is more than 454 µM. Also, the “Enzyme activity pIC50” value in data set [3] came out at 7.65.
On to `O=C(NO)c1cnc(N2CCO[C@H](CNS(=O)(=O)c3ccc(-c4ccccc4)cc3)C2)nc1` [Compound 12], for which the IC50 in data set [1] was 977 nM. The solubility in data set [2] fell in the range of 75.8 to 454 µM (≈ 35.6 to 213 µg/mL). The “Enzyme activity pIC50” value in data set [3] came to 7.528.
For the molecule `O=C(NO)c1cnc(N2CCOC(CNC(=O)c3ccc(-c4ccccc4)cc3)C2)nc1` (centres unmarked) [Compound 8], the melting point stood at 290 °C. Besides, the IC50 in data set [1] is 36.5 nM. Besides, in data set [2], the solubility was more than 454 µM. In data set [3], the “Enzyme activity pIC50” value was 7.487.
Consider `CCCO` [propanol], for which the “% metabolism” value in data set [4] (after 15 min incubation with microsomes (1 mg/ml), compound 5 μM, 37 degrees Celsius) is 25%.
For the molecule `COc1cc(N)c(Cl)cc1C(=O)NC1CCN(CCCOc2ccc(F)cc2)CC1OC` (centres unmarked) [Cisapride], the “% metabolism” value in data set [4] (human, 15 min, 5 μM) was 45%.
The molecule `O=C(NO)c1cnc(N2CC[C@H](O)[C@H](CNS(=O)(=O)c3ccc4ccccc4c3)C2)nc1` [Compound 11] had a melting point of 176 °C. The IC50 in data set [1] was more than 10000 nM. For the same molecule, the solubility in data set [2] was more than 454 µM. The “Enzyme activity pIC50” value in data set [3] came out at 7.553.
In the same order, the values of `O=C(NO)c1cnc(N2CCOC(CNS(=O)(=O)c3ccc(-c4ccccc4)cc3)C2)nc1` (centres unmarked) [Compound 4] are 163 °C, 565 nM, less than 75.8 µM and 8.097.
On the same counts, the results for `O=C(NO)c1cnc(N2CCNC(CNS(=O)(=O)c3ccc4ccccc4c3)C2)nc1` (centres unmarked) [Compound 2] are 243 °C, 2040 nM, less than 75.8 µM and 8.059.
As to `CN1CCN(c2ncc(C(=O)NO)cn2)CC1CNS(=O)(=O)c1ccc2ccccc2c1` (centres unmarked) [Compound 13], the IC50 in data set [1] was 1690 nM. Besides, the “Enzyme activity pIC50” value in data set [3] stood at 7.361.
Take `O=C(NO)c1cnc(N2CCN(Cc3ccccc3)C(CNS(=O)(=O)c3ccc4ccccc4c3)C2)nc1` (centres unmarked) [Compound 3]: the melting point worked out at 135 °C. Also, the IC50 in data set [1] is 2400 nM. Moreover, the solubility in data set [2] was less than 75.8 µM. The “Enzyme activity pIC50” value in data set [3] was found to be 7.647.
Turning to `O=C(NO)c1ccc(N2CCOC(CNS(=O)(=O)c3ccc(-c4ccccc4)cc3)C2)nc1` (centres unmarked) [Compound 5], the melting point was determined as 210 °C. Besides, the IC50 in data set [1] was 2050 nM. For the same molecule, the “Enzyme activity pIC50” value in data set [3] is 7.549.
Molecule `O=C(NO)c1cnc(N2CCOC(CNS(=O)(=O)c3ccc4ccccc4c3)C2)nc1` (centres unmarked) [Compound 6] registered a melting point of 179 °C. In addition, the IC50 in data set [1] is 413 nM. Besides, in data set [2], the solubility was more than 454 µM. For the same molecule, the “Enzyme activity pIC50” value in data set [3] is reported as 7.421.
On to `O=C(NO)c1cnc(N2CCCC(NS(=O)(=O)c3ccc4ccccc4c3)C2)nc1` (centres unmarked) [Compound 14], for which the IC50 in data set [1] is 243 nM.
